Experimental data as given in PubChem BioAssay AID1918953 (Molecular Pharmacology Branch, DTP, NCI, 2023).

Tested on: MDA-MB-231 complex spheroid viability
Assay: Anticancer human tumor MDA-MB-231/ATCC cell line growth inhibition;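 also: drug exposure lasted 7 days starting on day 3 of spheroid growth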
Conditions: for IC50: curve of first compound; for viability, T/C: stronger effect = lower value
How it was run: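 Drug combinations with the LSD1 inhibitor iadademstat tested on tumor cells co-cultured as spheroids with endothelial cells and mesenchymal stem cells. Concentrations descended in half-log increments from clinical Cmax or 10 microM.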

[1] = second compound 0.1 µM, first compound 0.00316 µM
[2] = second compound 0.1 µM, first compound 0.01 µM
[3] = second compound 0.1 µM, first compound 0.0316 µM
[4] = second compound 0.1 µM, first compound 0.1 µM
[5] = second compound 0.316 µM, first compound 0.00316 µM
[6] = second compound 0.316 µM, first compound 0.01 µM
[7] = second compound 0.316 µM, first compound 0.0316 µM
[8] = second compound 0.316 µM, first compound 0.1 µM
[9] = second compound 1 µM, first compound 0.00316 µM
[10] = second compound 1 µM, first compound 0.01 µM
[11] = second compound 1 µM, first compound 0.0316 µM
[12] = second compound 1 µM, first compound 0.1 µM
[13] = second compound 3.16 µM, first compound 0.00316 µM
[14] = second compound 3.16 µM, first compound 0.01 µM
[15] = second compound 3.16 µM, first compound 0.0316 µM
[16] = second compound 3.16 µM, first compound 0.1 µM
[17] = second compound 10 µM, first compound 0.00316 µM
[18] = second compound 10 µM, first compound 0.01 µM
[19] = second compound 10 µM, first compound 0.0316 µM
[20] = second compound 10 µM, first compound 0.1 µM
[21] = second compound 0.1 µM, first compound 0.00949 µM
[22] = second compound 0.1 µM, first compound 0.03 µM
[23] = second compound 0.1 µM, first compound 0.0949 µM
[24] = second compound 0.1 µM, first compound 0.3 µM
[25] = second compound 0.1 µM, first compound 0.949 µM
[26] = second compound 0.1 µM, first compound 3 µM
[27] = second compound 0.316 µM, first compound 0.00949 µM
[28] = second compound 0.316 µM, first compound 0.03 µM
[29] = second compound 0.316 µM, first compound 0.0949 µM
[30] = second compound 0.316 µM, first compound 0.3 µM
[31] = second compound 0.316 µM, first compound 0.949 µM
[32] = second compound 0.316 µM, first compound 3 µM
[33] = second compound 1 µM, first compound 0.00949 µM
[34] = second compound 1 µM, first compound 0.03 µM
[35] = second compound 1 µM, first compound 0.0949 µM
[36] = second compound 1 µM, first compound 0.3 µM
[37] = second compound 1 µM, first compound 0.949 µM
[38] = second compound 1 µM, first compound 3 µM
[39] = second compound 3.16 µM, first compound 0.00949 µM
[40] = second compound 3.16 µM, first compound 0.03 µM
[41] = second compound 3.16 µM, first compound 0.0949 µM
[42] = second compound 3.16 µM, first compound 0.3 µM
[43] = second compound 3.16 µM, first compound 0.949 µM
[44] = second compound 3.16 µM, first compound 3 µM
[45] = second compound 10 µM, first compound 0.00949 µM
[46] = second compound 10 µM, first compound 0.03 µM
[47] = second compound 10 µM, first compound 0.0949 µM
[48] = second compound 10 µM, first compound 0.3 µM
[49] = second compound 10 µM, first compound 0.949 µM
[50] = second compound 10 µM, first compound 3 µM

SMILES: COc1cc(Nc2ncc3c(n2)-c2ccc(Cl)cc2C(c2c(F)cccc2OC)=NC3)ccc1C(=O)O + NC1CCC(NC2CC2c2ccccc2)CC1
- IC50 (second compound 0.1 µM): 252 nM
- IC50 (second compound 0.316 µM): 179 nM
- IC50 (second compound 1 µM): 296 nM
- IC50 (second compound 3.16 µM): 90.1 nM
- IC50 (second compound 10 µM): < 3.16 nM
- viability, T/C [1]: 85%
- viability, T/C [2]: 66.4%
- viability, T/C [3]: 56%
- viability, T/C [4]: 58.7%
- viability, T/C (second compound 0.1 µM, first compound 0.316 µM): 50%
- viability, T/C (second compound 0.1 µM, first compound 1 µM): 44.3%
- viability, T/C [5]: 83.1%
- viability, T/C [6]: 65.5%
- viability, T/C [7]: 56.2%
- viability, T/C [8]: 54.9%
- viability, T/C (second compound 0.316 µM, first compound 0.316 µM): 50.8%
- viability, T/C (second compound 0.316 µM, first compound 1 µM): 42.7%
- viability, T/C [9]: 80.4%
- viability, T/C [10]: 64.6%
- viability, T/C [11]: 55.6%
- viability, T/C [12]: 56.2%
- viability, T/C (second compound 1 µM, first compound 0.316 µM): 51.5%
- viability, T/C (second compound 1 µM, first compound 1 µM): 45.6%
- viability, T/C [13]: 68.4%
- viability, T/C [14]: 54%
- viability, T/C [15]: 51.2%
- viability, T/C [16]: 54.5%
- viability, T/C (second compound 3.16 µM, first compound 0.316 µM): 48.5%
- viability, T/C (second compound 3.16 µM, first compound 1 µM): 38.2%
- viability, T/C [17]: 49.4%
- viability, T/C [18]: 42.4%
- viability, T/C [19]: 40.7%
- viability, T/C [20]: 38.6%
- viability, T/C (second compound 10 µM, first compound 0.316 µM): 41.8%
- viability, T/C (second compound 10 µM, first compound 1 µM): 37.2%

SMILES: Cn1ncnc1C1c2n[nH]c(=O)c3cc(F)cc(c23)NC1c1ccc(F)cc1 (stereo not given) + NC1CCC(NC2CC2c2ccccc2)CC1
- IC50 (second compound 0.1 µM): > 100 nM
- IC50 (second compound 0.316 µM): > 100 nM
- IC50 (second compound 1 µM): > 100 nM
- IC50 (second compound 3.16 µM): > 100 nM
- IC50 (second compound 10 µM): < 0.316 nM
- viability, T/C (second compound 0.1 µM, first compound 0.000316 µM): 95.7%
- viability, T/C (second compound 0.1 µM, first compound 0.001 µM): 97.2%
- viability, T/C [1]: 92.5%
- viability, T/C [2]: 81.9%
- viability, T/C [3]: 80.4%
- viability, T/C [4]: 78.7%
- viability, T/C (second compound 0.316 µM, first compound 0.000316 µM): 95.4%
- viability, T/C (second compound 0.316 µM, first compound 0.001 µM): 95.6%
- viability, T/C [5]: 84.6%
- viability, T/C [6]: 80.7%
- viability, T/C [7]: 77.7%
- viability, T/C [8]: 75.2%
- viability, T/C (second compound 1 µM, first compound 0.000316 µM): 92.3%
- viability, T/C (second compound 1 µM, first compound 0.001 µM): 89.9%
- viability, T/C [9]: 87.8%
- viability, T/C [10]: 81.3%
- viability, T/C [11]: 72.2%
- viability, T/C [12]: 70.7%
- viability, T/C (second compound 3.16 µM, first compound 0.000316 µM): 70.8%
- viability, T/C (second compound 3.16 µM, first compound 0.001 µM): 68.9%
- viability, T/C [13]: 64.5%
- viability, T/C [14]: 60.4%
- viability, T/C [15]: 59.1%
- viability, T/C [16]: 60.9%
- viability, T/C (second compound 10 µM, first compound 0.000316 µM): 48.3%
- viability, T/C (second compound 10 µM, first compound 0.001 µM): 50.3%
- viability, T/C [17]: 48.9%
- viability, T/C [18]: 42.2%
- viability, T/C [19]: 45.9%
- viability, T/C [20]: 44.6%

SMILES: NS(=O)(=O)OCC1CC(n2ccc3c(NC4CCc5ccccc54)ncnc32)CC1O (stereo not given) + NC1CCC(NC2CC2c2ccccc2)CC1
- IC50 (second compound 0.1 µM): 285 nM
- IC50 (second compound 0.316 µM): 280 nM
- IC50 (second compound 1 µM): 244 nM
- IC50 (second compound 3.16 µM): 169 nM
- IC50 (second compound 10 µM): 48.6 nM
- viability, T/C [21]: 136%
- viability, T/C [22]: 117%
- viability, T/C [23]: 78.1%
- viability, T/C [24]: 46.6%
- viability, T/C [25]: 42.7%
- viability, T/C [26]: 39.7%
- viability, T/C [27]: 135%
- viability, T/C [28]: 116%
- viability, T/C [29]: 77%
- viability, T/C [30]: 47.6%
- viability, T/C [31]: 40.3%
- viability, T/C [32]: 38.7%
- viability, T/C [33]: 124%
- viability, T/C [34]: 107%
- viability, T/C [35]: 73.4%
- viability, T/C [36]: 42.2%
- viability, T/C [37]: 40.6%
- viability, T/C [38]: 36.8%
- viability, T/C [39]: 100%
- viability, T/C [40]: 87.2%
- viability, T/C [41]: 59.7%
- viability, T/C [42]: 40.2%
- viability, T/C [43]: 33.4%
- viability, T/C [44]: 31.3%
- viability, T/C [45]: 69.7%
- viability, T/C [46]: 56.8%
- viability, T/C [47]: 40.4%
- viability, T/C [48]: 32.7%
- viability, T/C [49]: 28.1%
- viability, T/C [50]: 28.8%

SMILES: O=C(C=Cc1cccc(S(=O)(=O)Nc2ccccc2)c1)NO + NC1CCC(NC2CC2c2ccccc2)CC1
- IC50 (second compound 0.1 µM): 113 nM
- IC50 (second compound 0.316 µM): 106 nM
- IC50 (second compound 1 µM): 66.2 nM
- IC50 (second compound 3.16 µM): 21.9 nM
- IC50 (second compound 10 µM): < 9.49 nM
- viability, T/C [21]: 90.7%
- viability, T/C [22]: 75.7%
- viability, T/C [23]: 53%
- viability, T/C [24]: 30.5%
- viability, T/C [25]: 13.7%
- viability, T/C [26]: 0.59%
- viability, T/C [27]: 86.3%
- viability, T/C [28]: 69.6%
- viability, T/C [29]: 53.5%
- viability, T/C [30]: 30.8%
- viability, T/C [31]: 14.1%
- viability, T/C [32]: 1.38%
- viability, T/C [33]: 79.1%
- viability, T/C [34]: 61.8%
- viability, T/C [35]: 43.6%
- viability, T/C [36]: 30.3%
- viability, T/C [37]: 11.3%
- viability, T/C [38]: 0.68%
- viability, T/C [39]: 61.4%
- viability, T/C [40]: 45.3%
- viability, T/C [41]: 31%
- viability, T/C [42]: 20.8%
- viability, T/C [43]: 6.19%
- viability, T/C [44]: 0.34%
- viability, T/C [45]: 39.8%
- viability, T/C [46]: 29.8%
- viability, T/C [47]: 17.9%
- viability, T/C [48]: 13.9%
- viability, T/C [49]: 3.39%
- viability, T/C [50]: 0.33%
